The values that follow come from ChEMBL document CHEMBL1909046, “DrugMatrix in vitro pharmacology data”.

For one experiment, the target named is T1, Endothelin-1 receptor (Homo sapiens, UniProt P25101). Also: in other assays of this panel Not Active means under 50% inhibition at 10 µM.
T1 sequence (P25101 whole entry): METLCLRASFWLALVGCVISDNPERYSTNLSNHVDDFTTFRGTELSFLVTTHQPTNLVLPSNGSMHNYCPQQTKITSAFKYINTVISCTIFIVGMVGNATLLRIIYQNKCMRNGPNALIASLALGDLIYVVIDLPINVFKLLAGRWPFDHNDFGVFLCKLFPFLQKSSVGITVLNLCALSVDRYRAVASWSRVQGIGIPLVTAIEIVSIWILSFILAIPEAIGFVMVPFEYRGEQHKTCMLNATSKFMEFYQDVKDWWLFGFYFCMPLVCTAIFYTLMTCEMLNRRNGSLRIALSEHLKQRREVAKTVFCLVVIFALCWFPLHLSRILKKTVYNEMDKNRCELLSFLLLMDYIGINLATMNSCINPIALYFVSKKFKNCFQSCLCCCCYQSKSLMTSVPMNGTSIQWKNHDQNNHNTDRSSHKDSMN
The experiment is classed as cell membranes, Membrane. The note with it: cho-k1.

The target in a further experiment is Histamine H2 receptor (Homo sapiens, UniProt P25021). The format is cell membranes, CHO-K1, Membrane. The note with it: cho-k1. Also: in other assays of this panel Not Active means under 50% inhibition at 10 µM.
Chain of Histamine H2 receptor (P25021 whole entry): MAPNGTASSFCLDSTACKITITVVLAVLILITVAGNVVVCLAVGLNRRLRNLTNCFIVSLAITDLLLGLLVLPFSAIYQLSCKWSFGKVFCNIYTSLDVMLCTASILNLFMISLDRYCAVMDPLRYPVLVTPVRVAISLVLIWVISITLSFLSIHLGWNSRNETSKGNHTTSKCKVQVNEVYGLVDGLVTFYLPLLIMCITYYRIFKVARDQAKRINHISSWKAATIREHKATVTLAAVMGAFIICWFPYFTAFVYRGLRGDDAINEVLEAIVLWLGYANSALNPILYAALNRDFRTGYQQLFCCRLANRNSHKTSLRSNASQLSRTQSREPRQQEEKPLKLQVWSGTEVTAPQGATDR
Experiment [1] is described as follows: DRUGMATRIX: Imidazoline I2, Central radioligand binding (ligand: [3H] Idazoxan). The format is cell membranes, Rattus norvegicus, Wistar, Cerebral cortex, Membrane. The note with it: Not Active = under 50% inhibition at 10 µM.
Experiment [2] deals with T2, Cysteinyl leukotriene receptor 1 (Homo sapiens, UniProt Q9Y271).
T2 sequence (Q9Y271 whole entry): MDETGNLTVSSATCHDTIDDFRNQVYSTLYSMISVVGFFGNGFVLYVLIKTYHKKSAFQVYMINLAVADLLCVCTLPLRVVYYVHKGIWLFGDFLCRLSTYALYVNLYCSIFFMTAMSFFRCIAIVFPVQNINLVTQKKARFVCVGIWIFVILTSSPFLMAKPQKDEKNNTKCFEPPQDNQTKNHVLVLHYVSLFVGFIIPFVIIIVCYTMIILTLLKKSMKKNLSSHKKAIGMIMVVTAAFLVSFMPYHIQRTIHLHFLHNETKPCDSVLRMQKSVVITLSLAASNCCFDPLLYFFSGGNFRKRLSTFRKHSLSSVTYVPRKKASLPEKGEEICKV
The format is cell membranes, CHO-K1, Membrane. The note with it: cho-k1.

The target in experiment [3] is T3, Muscarinic acetylcholine receptor M4 (Homo sapiens, UniProt P08173). Also: in other assays of this panel Not Active means under 50% inhibition at 10 µM.
T3 sequence (P08173 whole entry): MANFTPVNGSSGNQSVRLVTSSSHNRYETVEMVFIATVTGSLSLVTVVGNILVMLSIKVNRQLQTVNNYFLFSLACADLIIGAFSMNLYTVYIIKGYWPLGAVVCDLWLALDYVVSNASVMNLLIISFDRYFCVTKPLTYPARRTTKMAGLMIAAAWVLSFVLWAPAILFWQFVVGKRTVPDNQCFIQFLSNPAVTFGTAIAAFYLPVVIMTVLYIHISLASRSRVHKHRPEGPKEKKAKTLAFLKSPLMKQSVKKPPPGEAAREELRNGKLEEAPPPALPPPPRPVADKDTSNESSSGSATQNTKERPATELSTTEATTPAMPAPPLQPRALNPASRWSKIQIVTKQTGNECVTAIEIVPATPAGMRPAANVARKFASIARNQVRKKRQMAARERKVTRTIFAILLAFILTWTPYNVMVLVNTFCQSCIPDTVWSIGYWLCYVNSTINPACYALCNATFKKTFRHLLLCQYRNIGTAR
The format is cell membranes, CHO-K1, Membrane. The note with it: cho-k1.

Experiment [4] concerns the target Tyrosine-protein kinase Fyn (Homo sapiens, UniProt P06241). As to the kind of experiment: biochemical. The format is cell-based, Insect cells. The note with it: insect cells.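 Also: enzymatic inhibition of Fyn kinase activity measured with Poly(Glu:Tyr) as the phosphorylation substrate; in other assays of this panel Not Active means under 50% inhibition at 10 µM.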

Chain of Tyrosine-protein kinase Fyn (P06241 whole entry): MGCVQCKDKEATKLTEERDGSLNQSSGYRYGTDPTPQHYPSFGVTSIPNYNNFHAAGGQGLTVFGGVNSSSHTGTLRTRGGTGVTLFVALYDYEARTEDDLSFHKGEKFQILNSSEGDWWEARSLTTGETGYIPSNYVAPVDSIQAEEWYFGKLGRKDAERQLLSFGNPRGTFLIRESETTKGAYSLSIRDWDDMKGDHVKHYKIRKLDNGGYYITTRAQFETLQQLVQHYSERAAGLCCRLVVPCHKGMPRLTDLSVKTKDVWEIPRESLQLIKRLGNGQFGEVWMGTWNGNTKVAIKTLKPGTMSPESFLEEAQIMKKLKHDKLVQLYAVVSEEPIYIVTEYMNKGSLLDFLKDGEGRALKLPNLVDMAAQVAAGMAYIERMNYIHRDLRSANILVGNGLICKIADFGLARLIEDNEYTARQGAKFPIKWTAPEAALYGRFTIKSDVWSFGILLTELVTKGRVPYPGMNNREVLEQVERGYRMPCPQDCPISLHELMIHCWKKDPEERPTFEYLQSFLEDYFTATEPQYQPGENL

Turning to `COc1ccc2cc([C@H](C)C(=O)O)ccc2c1` [NAPROXEN], the half-inhibitory concentration (IC50) result (against Endothelin-1 receptor; on Histamine H2 receptor; in experiment [1]; in experiment [2]; in experiment [3]; in experiment [4]) was “Not Active” throughout. The Ki result in experiment [1] is reported as “Not Active”.
Consider `CC(C)[C@H]1CC[C@H](C(=O)N[C@H](Cc2ccccc2)C(=O)O)CC1` [NATEGLINIDE], for which the IC50 result (against Endothelin-1 receptor; at Histamine H2 receptor; in experiment [1]; in experiment [2]; in experiment [3]; in experiment [4]) was “Not Active” in each case. For the same compound, the Ki entry in experiment [1] was “Not Active”.
Regarding `CCN[C@@H]1C[C@H](N)[C@@H](O[C@H]2OC(CN)=CC[C@H]2N)[C@H](O)[C@H]1O[C@H]1OC[C@](C)(O)[C@H](NC)[C@H]1O` [NETILMICIN], the IC50 entry (on Endothelin-1 receptor; on Histamine H2 receptor; in experiment [1]; in experiment [2]; in experiment [3]; in experiment [4]) was “Not Active” each time. The Ki result in experiment [1] is listed as “Not Active”.
For `COC(=O)C1=C(C)NC(C)=C(C(=O)OCC(C)C)C1c1ccccc1[N+](=O)[O-]` (stereo not given) [NISOLDIPINE], the IC50 entry (on Endothelin-1 receptor; at Histamine H2 receptor; in experiment [1]; in experiment [2]; in experiment [3]; in experiment [4]) was “Not Active” in each case. Further, the Ki result in experiment [1] is reported as “Not Active”.
Regarding `CCOC(=O)C1=C(C)NC(C)=C(C(=O)OC)C1c1cccc([N+](=O)[O-])c1` (stereo not given) [NITRENDIPINE], the IC50 result (on Endothelin-1 receptor; against Histamine H2 receptor; in experiment [1]; in experiment [2]; in experiment [3]; in experiment [4]) was “Not Active” each time. The Ki entry in experiment [1] was “Not Active”.
Regarding `C#C[C@]1(OC(C)=O)CC[C@H]2[C@@H]3CCC4=CC(=O)CC[C@@H]4[C@H]3CC[C@@]21C` [NORETHINDRONE ACETATE], the IC50 result (on Endothelin-1 receptor; at Histamine H2 receptor; in experiment [1]; in experiment [2]; in experiment [3]; in experiment [4]) was “Not Active” in each case. In addition, the Ki result in experiment [1] was “Not Active”.
In the case of `COc1ccc2[nH]c([S+]([O-])Cc3ncc(C)c(OC)c3C)nc2c1` (stereo not given) [OMEPRAZOLE], the 50% inhibitory concentration (IC50) result (on Endothelin-1 receptor; at Histamine H2 receptor; in experiment [1]; in experiment [2]; in experiment [3]; in experiment [4]) was “Not Active” throughout. Moreover, the Ki entry in experiment [1] is given as “Not Active”.
On to `Cc1nccn1CC1CCc2c(c3ccccc3n2C)C1=O` (stereo not given) [ONDANSETRON], for which the concentration for half-maximal inhibition (IC50) entry (at Endothelin-1 receptor; at Histamine H2 receptor; in experiment [1]; in experiment [2]; in experiment [3]; in experiment [4]) was “Not Active” each time. Also, the Ki entry in experiment [1] is given as “Not Active”.
Consider `CCn1cc(C(=O)O)c(=O)c2cc(F)c(N3CCN(C)CC3)cc21` [PEFLOXACIN], for which the concentration for half-maximal inhibition (IC50) entry (on Endothelin-1 receptor; on Histamine H2 receptor; in experiment [1]; in experiment [2]; in experiment [3]; in experiment [4]) was “Not Active” each time. The Ki result in experiment [1] is “Not Active”.
`CCCCOc1ccc(OCCCN2CCOCC2)cc1` [PRAMOXINE]: the IC50 result (on Endothelin-1 receptor; against Histamine H2 receptor; in experiment [1]; in experiment [2]; in experiment [3]; in experiment [4]) was “Not Active” throughout. Besides, in experiment [1], the Ki result was “Not Active”.
As to `O=C(C1CCCCC1)N1CC(=O)N2CCc3ccccc3C2C1` (stereo not given) [PRAZIQUANTEL], the IC50 result (on Endothelin-1 receptor; on Histamine H2 receptor; in experiment [1]; in experiment [2]; in experiment [3]; in experiment [4]) was “Not Active” each time. The Ki entry in experiment [1] is listed as “Not Active”.
With `CCN(CC)CCOC(=O)c1ccc(N)cc1` [PROCAINE], the 50% inhibitory concentration (IC50) result (against Endothelin-1 receptor; against Histamine H2 receptor; in experiment [1]; in experiment [2]; in experiment [3]; in experiment [4]) was “Not Active” each time. In addition, the Ki entry in experiment [1] is reported as “Not Active”.
With `CCCN(CCC)C(=O)C(CCC(=O)O)NC(=O)c1ccccc1` (stereo not given) [PROGLUMIDE], the IC50 entry (at Endothelin-1 receptor; against Histamine H2 receptor; in experiment [1]; in experiment [2]; in experiment [3]; in experiment [4]) was “Not Active” throughout. Also, in experiment [1], the Ki entry is given as “Not Active”.
Take `NC(=O)c1cnccn1` [PYRAZINAMIDE]: the IC50 entry (against Endothelin-1 receptor; on Histamine H2 receptor; in experiment [1]; in experiment [2]; in experiment [3]; in experiment [4]) was “Not Active” in each case. Further, in experiment [1], the Ki entry is on record as “Not Active”.
In the case of `Cc1cc2cc3c(C)cc(=O)oc3c(C)c2o1` [TRIOXSALEN], the concentration for half-maximal inhibition (IC50) entry (against Endothelin-1 receptor; against Histamine H2 receptor; in experiment [1]; in experiment [2]; in experiment [3]; in experiment [4]) was “Not Active” each time. The Ki entry in experiment [1] is “Not Active”.
For the compound `CCCC(CCC)C(=O)O` [VALPROIC ACID], the IC50 entry (against Endothelin-1 receptor; at Histamine H2 receptor; in experiment [1]; in experiment [2]; in experiment [3]; in experiment [4]) was “Not Active” throughout. The Ki result in experiment [1] is “Not Active”.
Regarding `CCC1=C[C@@H]2CN(C1)Cc1c([nH]c3ccccc13)[C@@](C(=O)OC)(c1cc3c(cc1OC)N(C)[C@H]1[C@@](O)(C(=O)OC)[C@H](OC(C)=O)[C@]4(CC)C=CCN5CC[C@]31[C@@H]54)C2` [VINORELBINE], the IC50 entry (at Endothelin-1 receptor; against Histamine H2 receptor; in experiment [1]; in experiment [2]; in experiment [3]; in experiment [4]) was “Not Active” throughout. Moreover, in experiment [1], the Ki result is “Not Active”.
Regarding CADMIUM DICHLORIDE, the IC50 entry against Endothelin-1 receptor is “Not Active”; against Histamine H2 receptor, “Not Active”; in experiment [1], “Not Active”; in experiment [2] it was “Not Active”; in experiment [3], “Not Active”; in experiment [4] (read-out: IC50), 137 nM. Further, the Ki result (on Endothelin-1 receptor; on Histamine H2 receptor; in experiment [1]; in experiment [2]; in experiment [3]) was “Not Active” throughout.

A word on the IC50: it is the point on the concentration scale where inhibition reaches its midpoint.
